Data on 23 compounds can be found in PubChem BioAssay AID192 (DTP/NCI, 2004).

The subject of the assay is BDF1 mice, B16 melanoma ip, median survival T/C. Briefly: NCI In Vivo Anticancer Drug Screen. Data for tumor model B16 Melanoma (intraperitoneal) in B6D2F1 (BDF1) mice. The note with it: endpoint: median survival time, higher = longer survival. Put shortly:
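In this screen, activity was judged from survival or tumor size in treated versus vehicle-treated tumor-bearing mice, reported as T/C.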

[1] abbreviates: dose: 25.0 mg/kg/injection, schedule: Q01DX009 (ip), vehicle: saline with Tween-80.
Setting [2] is: dose: 50.0 mg/kg/injection, schedule: Q01DX009 (ip), vehicle: saline with Tween-80.
[3] abbreviates: dose: 100.0 mg/kg/injection, schedule: Q01DX009 (ip), vehicle: saline with Tween-80.
Where [4] appears, read: dose: 100.0 mg/kg/injection, schedule: Q01DX009 (ip), vehicle: saline.
Setting [5] is: dose: 200.0 mg/kg/injection, schedule: Q01DX009 (ip), vehicle: saline.
Where [6] appears, read: dose: 400.0 mg/kg/injection, schedule: Q01DX009 (ip), vehicle: saline.
The mark [7] stands for this setting: dose: 12.5 mg/kg/injection, schedule: Q01DX009 (ip), vehicle: saline with Tween-80.
Setting [8] is: dose: 50.0 mg/kg/injection, schedule: Q01DX009 (ip), vehicle: Klucel (hydroxypropylcellulose) (HPC).
[9] abbreviates: dose: 100.0 mg/kg/injection, schedule: Q01DX009 (ip), vehicle: Klucel (hydroxypropylcellulose) (HPC).
Setting [10] is: dose: 200.0 mg/kg/injection, schedule: Q01DX009 (ip), vehicle: Klucel (hydroxypropylcellulose) (HPC).
The mark [11] stands for this setting: dose: 400.0 mg/kg/injection, schedule: Q01DX009 (ip), vehicle: Klucel (hydroxypropylcellulose) (HPC).
[12] abbreviates: dose: 6.25 mg/kg/injection, schedule: Q01DX009 (ip), vehicle: Klucel (hydroxypropylcellulose) (HPC).
Setting [13] is: dose: 12.5 mg/kg/injection, schedule: Q01DX009 (ip), vehicle: Klucel (hydroxypropylcellulose) (HPC).
Where [14] appears, read: dose: 25.0 mg/kg/injection, schedule: Q01DX009 (ip), vehicle: Klucel (hydroxypropylcellulose) (HPC).
[15] abbreviates: dose: 200.0 mg/kg/injection, schedule: Q01DX009 (ip), vehicle: saline with Tween-80.
Where [16] appears, read: dose: 25.0 mg/kg/injection, schedule: Q01DX009 (ip), vehicle: saline.
[17] abbreviates: dose: 50.0 mg/kg/injection, schedule: Q01DX009 (ip), vehicle: saline.

Where “and” joins values, the source holds several entries; their conditions need not be identical. Equal values may be shown once. Inconclusive results and toxic doses are left out.

As for `C[NH-].C[NH-].[Cl][Pt+2][Cl]`, the T/C is, setting by setting: (dose: 0.39 mg/kg/injection, schedule: Q01DX009 (ip), vehicle: saline) 102 % of control; (dose: 0.78 mg/kg/injection, schedule: Q01DX009 (ip), vehicle: saline) 104 % of control; (dose: 1.56 mg/kg/injection, schedule: Q01DX009 (ip), vehicle: saline) 112 % of control; (dose: 3.13 mg/kg/injection, schedule: Q01DX009 (ip), vehicle: saline) 121 % of control; (dose: 8.0 mg/kg/injection, schedule: Q01DX009 (ip), vehicle: saline with Tween-80) 154 % of control.

Consider `CC[CH2][Sn]([Cl])([Cl])[CH2]CC.Oc1ccccc1C=NCCN=Cc1ccccc1O`, for which the T/C is 95 % of control (dose: 0.6 mg/kg/injection, schedule: Q01DX009 (ip), vehicle: gum acacia); 100 % of control (dose: 0.61 mg/kg/injection, schedule: Q01DX009 (ip), vehicle: gum acacia); 92 % of control and 100 % of control (dose: 1.25 mg/kg/injection, schedule: Q01DX009 (ip), vehicle: gum acacia); 92 % of control and 94 % of control (dose: 2.5 mg/kg/injection, schedule: Q01DX009 (ip), vehicle: gum acacia); 90 % of control and 97 % of control (dose: 5.0 mg/kg/injection, schedule: Q01DX009 (ip), vehicle: gum acacia).

As to `CCC(C)C#N` (stereo not given), the T/C (dose: 5.0 mg/kg/injection, schedule: Q01DX009 (ip), vehicle: saline) was 97 % of control; the T/C (dose: 10.0 mg/kg/injection, schedule: Q01DX009 (ip), vehicle: saline) is 95 % of control; the T/C (dose: 20.0 mg/kg/injection, schedule: Q01DX009 (ip), vehicle: saline) was 100 % of control.

In the case of `O=C(O)C1C(C(=O)O)C2(Cl)C(Cl)=C(Cl)C1(Cl)C2(Cl)Cl.[Fe]` (stereo not given), the T/C was 93 % of control under setting [1], 95 % of control under setting [2] and 93 % of control under setting [3].

For `c1ccc(COB(OCc2ccccc2)OCc2ccccc2)cc1`, the T/C under setting [4] was 108 % of control, the T/C under setting [5] was 97 % of control and the T/C under setting [6] was 87 % of control.

Consider `CC(C)(C)c1cc([N+](=O)[O-])cc([N+](=O)[O-])c1O`, for which the T/C by setting is: (dose: 1.56 mg/kg/injection, schedule: Q01DX009 (ip), vehicle: saline with Tween-80) 99 % of control; (dose: 3.13 mg/kg/injection, schedule: Q01DX009 (ip), vehicle: saline with Tween-80) 96 % of control; (dose: 6.25 mg/kg/injection, schedule: Q01DX009 (ip), vehicle: saline with Tween-80) 93 % of control; under setting [7], 89 % of control.

In the case of `ClC(Cl)=C(Cl)Cl`, the T/C reads like this: under setting [7], 105 % of control; under setting [1], 98 % of control; under setting [8], 101 % of control; under setting [2], 93 % of control; under setting [9], 99 % of control; under setting [3], 92 % of control. In addition, the T/C runs as follows: under setting [10], 98 % of control; under setting [11], 88 % of control.

Consider `COC(=O)C1C2CC3c4[nH]c5cc(OC)ccc5c4CCN3CC2CC(OC(=O)c2cc(OC)c(OC)c(OC)c2)C1OC` (stereo not given), for which the T/C is 105 % of control (dose: 3.12 mg/kg/injection, schedule: Q01DX009 (ip), vehicle: Klucel (hydroxypropylcellulose) (HPC)); 105 % of control under setting [12]; 110 % of control under setting [13]; 97 % of control under setting [14]; 90 % of control under setting [8].

In the case of `NC(=O)NO`, the T/C is 95 % of control and 100 % of control (dose: 37.5 mg/kg/injection, schedule: Q03HX024 (ip), vehicle: saline); 95 % of control (dose: 75.0 mg/kg/injection, schedule: Q03HX024 (ip), vehicle: saline); 95 % of control (dose: 150.0 mg/kg/injection, schedule: Q01DX009 (ip), vehicle: water); 93 % of control (dose: 150.0 mg/kg/injection, schedule: Q01DX017 (ip), vehicle: water); 95 % of control (dose: 150.0 mg/kg/injection, schedule: Q## X009 (ip), vehicle: water); 100 % of control (dose: 300.0 mg/kg/injection, schedule: Q01DX009 (ip), vehicle: water). Also, the T/C is 97 % of control (dose: 300.0 mg/kg/injection, schedule: Q01DX017 (ip), vehicle: water); 93 % of control (dose: 300.0 mg/kg/injection, schedule: Q## X009 (ip), vehicle: water); 100 % of control (dose: 600.0 mg/kg/injection, schedule: Q## X009 (ip), vehicle: water); 100 % of control (dose: 2400.0 mg/kg/injection, schedule: Q01DX001 (ip), vehicle: water).

As to `CSCCC(NC(=O)c1ccccc1)C(=O)O` (stereo not given), the T/C was 89 % of control under setting [13]; 104 % of control under setting [7]; 100 % of control under setting [14]; 97 % of control under setting [1]; 88 % of control under setting [8]; 99 % of control under setting [2]. In addition, under setting [9], the T/C was 88 % of control.

With `C#CC1(OCC2CN(c3ccccc3)C(=O)O2)CCCCC1` (stereo not given), the T/C is 93 % of control under setting [14]; 95 % of control under setting [8]; 95 % of control under setting [9]; 97 % of control (dose: 100.0 mg/kg/injection, schedule: Q04DX003 (ip), vehicle: saline with Tween-80); 102 % of control under setting [10]; 102 % of control (dose: 200.0 mg/kg/injection, schedule: Q04DX003 (ip), vehicle: saline with Tween-80). Also, the T/C was 91 % of control under setting [11] and 100 % of control (dose: 400.0 mg/kg/injection, schedule: Q04DX003 (ip), vehicle: saline with Tween-80).

For `C[C@]12CC[C@H]3[C@@H](CC[C@]4(O)C[C@@H](O)CC[C@]34C=O)[C@@]1(O)CC[C@@H]2C1=CC(=O)OC1`, the T/C is, setting by setting: under setting [7], 104 % of control; under setting [1], 92 % of control; under setting [2], 97 % of control; under setting [3], 97 % of control; under setting [15], 90 % of control.

For the compound `CNC1=C(N2CC2)C(=O)C(NC)=C(N2CC2)C1=O`, the T/C is, setting by setting: (dose: 0.01 mg/kg/injection, schedule: Q01DX009 (ip), vehicle: saline) 102 % of control; (dose: 0.1 mg/kg/injection, schedule: Q01DX009 (ip), vehicle: saline) 108 % of control; (dose: 0.2 mg/kg/injection, schedule: Q01DX009 (ip), vehicle: saline) 94 % of control.

As to `CC(=O)CCCc1ccccc1`, the T/C runs as follows: under setting [4], 112 % of control; under setting [5], 116 % of control; under setting [6], 98 % of control.

With `NNC(=O)NO`, the T/C runs as follows: under setting [7], 102 % of control; under setting [1], 121 % of control.

As for `O=C1C=CC(=O)N1c1ccc2c(c1)oc(=O)c1ccccc12`, the T/C under setting [8] is 87 % of control.

On to `O=C1C=C(C2OC(CO)C(O)C2O)C(=O)N1` (stereo not given), for which the T/C is 107 % of control under setting [12]; 99 % of control and 102 % of control under setting [13].

Regarding `CCC1C(=O)NC(=O)C1(C)c1ccccc1` (stereo not given), the T/C was 105 % of control under setting [16], 108 % of control under setting [17], 100 % of control under setting [4] and 100 % of control under setting [5].

As to `COc1ccc(-c2c(N)nc(=S)[nH]c2C(=O)O)cc1`, the T/C was 94 % of control under setting [8], 105 % of control under setting [9] and 94 % of control under setting [10].

Regarding `O=C(Nc1ccccc1)Nc1nccs1`, the T/C is, setting by setting: under setting [13], 91 % of control; under setting [14], 93 % of control and 113 % of control; under setting [8], 98 % of control and 102 % of control; under setting [9], 93 % of control and 99 % of control; under setting [10], 94 % of control and 100 % of control.

For `COC1(OC)C2C=CC1CC2`, the T/C runs as follows: under setting [2], 97 % of control; under setting [3], 97 % of control; under setting [15], 90 % of control; (dose: 400.0 mg/kg/injection, schedule: Q01DX009 (ip), vehicle: saline with Tween-80) 96 % of control.

For the compound `O=C(O)c1cccnc1`, the T/C reads like this: under setting [13], 112 % of control; under setting [14], 105 % of control; under setting [8], 97 % of control; under setting [9], 100 % of control.

In the case of `OC12CCC[N+]1(Cc1ccccc1)CCC2` (stereo not given), the T/C (dose: 12.5 mg/kg/injection, schedule: Q01DX009 (ip), vehicle: saline) was 109 % of control; the T/C under setting [16] is 109 % of control; the T/C under setting [17] is 102 % of control.
